Data taken from patent US10856562B2, “Flavor composition and edible compositions containing same” (MARS, INCORPORATED, priority 2013, dated 2020).
Square brackets hold non-standard residues; d marks the D form. Ends that are not written are not given here. pGlu = O=C1CC[C@@H](C(=O)O)N1

Assays:
panel of trained tasters = assay: Saltiness of sodium-reduced pasta sauce with peptides, panel of trained tasters; assay type: in vivo, human; details: 10 ppb of UE-30
Description: Food product compositions were prepared by admixing flavor composition peptide(s) of the present application with food compositions, wherein the level of sodium (NaCl) in the food product compositions was reduced. The level of sodium was reduced by 25%, 50% or 75% compared to food products compositions that were not admixed with flavor composition peptides. The food product compositions comprising the flavor composition peptides were tasted by a panel of trained tasters and the level of saltiness was compared to the control food products.
The peptides pGlu-Val-Leu (identified as “SE-13”), pGlu-Val-Cys (identified as “UE-30”) and pGlu-Val-Val (identified as “SE-17”) were tested in Pasta Sauce. The control pasta sauce comprised 540 mg sodium (NaCl) in a 125 g serving.

panelists = assay: Consensus attribute scores of flavor enhancers in Uncle Ben's Garden Vegetable Ready rice; assay type: in vivo, human; set-up: key to Cooked White Rice / Vegetable Oil / Vegetable Complex / Cooked Green Vegetable / Cooked Corn / Sweet (BASIC TASTES) / Salt (BASIC TASTES) / Mouthdrying (Texture) / Residual Mouthcoating (Texture) / Total Aromatics / Bitter (BASIC TASTES): 15-point scale, 0 = none, 15 = very strong; details: for Black Pepper / Cooked Corn / Cooked Green Vegetable / Cooked White Rice / Dehydrated onion/garlic / HVP/Brothy / Mineral/Flint / Mouthdrying (Texture) / Residual Mouthcoating (Texture) / Salt (BASIC TASTES) / Salt Burn (Chemical Feeling Factors) / Sweet (BASIC TASTES) / Total Aromatics / Umami (Chemical Feeling Factors) / Vegetable Complex / Vegetable Oil: rice
Description: Descriptive attributes (e.g., taste, flavor and chemical feeling factors) of three use levels of pGlu-Cys (FE-35), pGlu-Cys-Gly (FE-36), pGlu-Cys-Cys (FE-37), pGlu-Cys-Val (FE-38) and pGlu-Val-Cys (UE-30) flavor composition peptides were determined. The three use levels were as follows: 1.0 ppb, 10.0 ppb and 100.0 ppb.
Data was collected for the attributes of the product in-mouth for the use levels according to the following protocol: • The samples were analyzed for flavor by six to nine members of a panel, trained and experienced in flavor evaluation using the Spectrum™ method. Samples were evaluated across multiple panel sessions. • The strength of each attribute was rated on a 15-point scale, where 0=none and 15=very strong. • This scale incorporates the ability to use tenths of a point and therefore has the potential of 150 scale differentiations. • The scale may be expanded beyond 15 points to include extreme ratings if necessary.
Preparation of Rice Samples • Each flavor enhancer was tested in Uncle Ben's Garden Vegetable Ready rice matrix at 3 different concentrations: 1 ppb, 10 ppb and 100 ppb. A total of 15 points with flavor enhancers were prepared for sensory evaluation. Additionally, 15 control samples were prepared. Each point had 2 samples (test and control) and was made from one pouch of rice. • Directions to prepare the solutions: • The 15 ready- to eat pouches were microwaved according to the procedure found on the back of the pouch: (1) squeeze pouch to separate rice, (2) tear two inches to vent, (3) heat on High for 90 seconds and (4) remove from microwave using COOL TOUCH area on untorn side. • From each pouch 124.75 g (test sample) and 99.8 g (control) were weighed out. The test sample had the flavor enhancer and/or salt. The control sample only had salt added. • The flavor enhancer and/or salt (non-iodized salt) were weighed in a soufflé cup. The weighed amount of flavor enhancer and/or salt was added to the sub-sampled rice. The rice was stirred and mixed to evenly distribute the salt added. • Some rice was placed back into the soufflé cup, sealed, and the cup was shook to get the flavor enhancer and/or salt that may have been stuck on the walls of the soufflé cup. After shaking the soufflé cup, the rice was added back to the original sub-sampled rice and stirred/mixed again. • Each sample (test and control) was microwaved for another 30 seconds (or until warm) to ensure that the salts/compounds were going completely into the solutions. • All samples (test and control) were tasted at the same temperature. • Each test sample had 0.2% NaCl added and flavor enhancers at the specified concentrations.
A summary of the concentrations of NaCl and flavor composition peptides in the rice samples is described in table 23. The first value of each cell represents a single sample amount of an ingredient in milligrams, and the second number in parenthesis is a doubling of the ingredient (in grams) for use in a doubled size sample.
The panelists evaluated each sample for the attributes described by table 25.

## [pGlu]-Val-Cys [UE-30]
Panel of trained tasters
  Off-taste: had a metallic taste
panelists; 10 and 100 ppb
  Mouthdrying in rice: low mouthdrying
panelists; all samples (1, 10, 100 ppb)
  Cooked green vegetable in rice compared to the Control: low level of cooked green vegetable
  Salt burn feeling factor in rice compared to the Control: higher
  Salt in rice compared to the Control: saltier than the Control
  Umami feeling factor in rice compared to the Control: higher
panelists; 1.0 ppb (5 ppm)
  Black Pepper: 1.3
  Cooked Corn: 0.8
  Cooked Green Vegetable: 0.8
  Cooked White Rice: 3.0
  Dehydrated onion/garlic: 1.0
  HVP/Brothy: 1.5
  Mineral/Flint: 0.0
  Mouthdrying (Texture): 0.0
  Residual Mouthcoating (Texture): 1.0
  Salt (BASIC TASTES): 15.0
  Salt Burn (Chemical Feeling Factors): 1.0
  Sweet (BASIC TASTES): 3.0
  Total Aromatics: 6.8
  Umami (Chemical Feeling Factors): 1.5
  Vegetable Complex: 1.5
  Vegetable Oil: 0.8
panelists; 10.0 ppb (50 ppm)
  Black Pepper: 1.5
  Cooked Corn: 1.0
  Cooked Green Vegetable: 1.0
  Cooked White Rice: 3.0
  Dehydrated onion/garlic: 1.0
  HVP/Brothy: 1.5
  Mineral/Flint: 0.5
  Mouthdrying (Texture): 1.8
  Residual Mouthcoating (Texture): 1.0
  Salt (BASIC TASTES): 15.0
  Salt Burn (Chemical Feeling Factors): 0.8
  Sweet (BASIC TASTES): 3.5
  Total Aromatics: 6.8
  Umami (Chemical Feeling Factors): 2.0
  Vegetable Complex: 1.8
  Vegetable Oil: 0.8
panelists; 100 ppb (50 ppm)
  Black Pepper: 1.5
  Cooked Corn: 1.0
  Cooked Green Vegetable: 1.0
  Cooked White Rice: 3.0
  Dehydrated onion/garlic: 1.0
  HVP/Brothy: 1.5
  Mineral/Flint: 0.5
  Mouthdrying (Texture): 1.5
  Residual Mouthcoating (Texture): 1.5
  Salt (BASIC TASTES): 16.0
  Salt Burn (Chemical Feeling Factors): 1.3
  Sweet (BASIC TASTES): 3.5
  Total Aromatics: 6.8
  Umami (Chemical Feeling Factors): 3.0
  Vegetable Complex: 1.8
  Vegetable Oil: 0.5
